The subject of the assay is dorsal forearm skin. The assay can be described thus: In vivo biopsy (dorsal forearm, histology). Set-up: species or system human. Conditions: 3 weeks semi-occlusion patch, retinol 0.05%. How it is done: Healthy female Caucasian subjects aged 30-65, with skin type II or III and mild to moderate photo damage, were treated on the dorsal forearm for 3 weeks (3 consecutive rounds of 5×24 hour) under semi-occlusion patches. Test articles including active ingredients, vehicle controls, and retinol were applied in a randomized allocation on 6 sites on each forearm. The application dose was 2 mg/cm^2. After 3 week treatment, a 2 mm punch biopsy was obtained from each treatment site and fixed in 10% buffered formalin. Tissue samples then embedded in paraffin, sectioned (5 μm thickness), and stained for skin markers after re-hydration. […] Retinol at a active concentration of 0.05% was used a positive control. Retinol use at a 0.05% active concentration in the semi-occlusion patch vehicle formulation yielded a visual score of approximately 0.56 out of a 4 point scale in HE staining (measuring hematoxylin and eosin staining, an indication of viable epidermal thickness and health) with 63.6% of the subjects showing an improvement; a visual score of 0.6 out of a 4 point scale in M-TC staining (Masson's trichrome staining, assessing total mature fiber-forming collagen in the dermis—mainly Collagen I, […] and Collagen V) with 51.6% of the subjects showing an improvement; a visual score of 0.52 out of a 4 point scale for pro-Col (measuring new synthesis of Collagen I by skin fibroblasts in the dermis) with 51.6% of the subjects showing an improvement; and a visual score of 0.57 out of a 4 point scale for HA (measuring level of hyaluronic acid in both dermis and epidermis) with 50% of the subjects showing an improvement.

[1] abbreviates: out of a 4 point scale, extract 0.33%.

The values that follow come from US20150366787A1, “SESBANIA ACULEATA EXTRACTS AND METHODS OF USE” (AVON PRODUCTS, INC., priority 2013, published 2015).

With `CC1=C(/C=C/C(C)=C/C=C/C(C)=C/CO)C(C)(C)CCC1` [Retinol], where the note is “extract 0.33%”, the “subjects showing an improvement, HA” value stood at 50%; the “subjects showing an improvement, HE staining” value is listed as 63.6%; the “subjects showing an improvement, M-TC staining” value came out at 51.6%; the “subjects showing an improvement, pro-Col” value worked out at 51.6%. Also, the “visual score in HE staining (viable epidermal thickness and health)” value (out of a 4 point scale, 2 mg/cm^2, extract 0.33% (Example 1B ethanol/water extract)) is on record as “approximately 0.56”. In addition, under setting [1], the “visual score for HA (hyaluronic acid in dermis and epidermis)” value is given as 0.57; the “visual score for pro-Col (new synthesis of Collagen I)” value is on record as 0.52; the “visual score in M-TC staining (total mature fiber-forming collagen in the dermis)” value is listed as 0.6.
